How the values were obtained:
Assay in all cases: relative viability (nuclei count vs DMSO), 5 days (fraction); higher = more cells survive
Ponatinib + Alpelisib = compound: Cc1ccc(C(=O)Nc2ccc(CN3CCN(C)CC3)c(C(F)(F)F)c2)cc1C#Cc1cnc2cccnn12 [Ponatinib] + Cc1nc(NC(=O)N2CCC[C@H]2C(N)=O)sc1-c1ccnc(C(C)(C)C(F)(F)F)c1 [Alpelisib] (partner 2 µM)
Outline: (§1)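 Each reported value is a median over duplicate plates. It expresses relative viability: treated-well nuclei count divided by vehicle-well nuclei count. Lung cancer cell lines in 1536-well plates were dosed by pin tool a day after seeding, alone with one drug or with a fixed anchor-drug dose plus five library-drug doses (not always all listed) in √10 steps, and nuclei were counted after 5 days.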

Pazopanib + Palbociclib = compound: Cc1ccc(Nc2nccc(N(C)c3ccc4c(C)n(C)nc4c3)n2)cc1S(N)(=O)=O [Pazopanib] + CC(=O)c1c(C)c2cnc(Nc3ccc(N4CCNCC4)cn3)nc2n(C2CCCC2)c1=O [Palbociclib] (partner 0.5 µM)
Outline: as §1

Pazopanib + Bortezomib = compound: Cc1ccc(Nc2nccc(N(C)c3ccc4c(C)n(C)nc4c3)n2)cc1S(N)(=O)=O [Pazopanib] + CC(C)C[C@H](NC(=O)[C@H](Cc1ccccc1)NC(=O)c1cnccn1)B(O)O [Bortezomib] (partner 0.002 µM)
Outline: as §1

Pazopanib + AZD7762 = compound: Cc1ccc(Nc2nccc(N(C)c3ccc4c(C)n(C)nc4c3)n2)cc1S(N)(=O)=O [Pazopanib] + NC(=O)Nc1cc(-c2cccc(F)c2)sc1C(=O)N[C@H]1CCCNC1 [AZD7762] (partner 0.2 µM)
Outline: as §1

Row | Cell Line | relative viability (Ponatinib + Alpelisib; first compound 0.002 µM) | relative viability (Ponatinib + Alpelisib; first compound 0.006325 µM) | relative viability (Ponatinib + Alpelisib; first compound 0.06325 µM) | relative viability (Ponatinib + Alpelisib; first compound 0.2 µM) | relative viability (Pazopanib + Palbociclib; first compound 0.01 µM) | relative viability (Pazopanib + Palbociclib; first compound 0.03162 µM) | relative viability (Pazopanib + Palbociclib; first compound 0.1 µM) | relative viability (Pazopanib + Palbociclib; first compound 0.3162 µM) | relative viability (Pazopanib + Palbociclib; first compound 1 µM) | relative viability (Pazopanib + Bortezomib; first compound 0.01 µM) | relative viability (Pazopanib + Bortezomib; first compound 0.03162 µM) | relative viability (Pazopanib + Bortezomib; first compound 0.1 µM) | relative viability (Pazopanib + Bortezomib; first compound 0.3162 µM) | relative viability (Pazopanib + Bortezomib; first compound 1 µM) | relative viability (Pazopanib + AZD7762; first compound 0.01 µM) | relative viability (Pazopanib + AZD7762; first compound 0.03162 µM) | relative viability (Pazopanib + AZD7762; first compound 1 µM) | relative viability (Pazopanib + AZD7762; first compound 0.1 µM) | relative viability (Pazopanib + AZD7762; first compound 0.3162 µM)
1 | ABC-1 | 1.18 | 0.987 | 1.08 | 0.874 | 0.407 | 0.799 | 0.788 | 1.13 | 0.784 | 0.257 | 0.293 | 0.212 | 0.316 | 0.343 | 0.797 | 0.757 | 0.804 | – | –
2 | NCI-H2405 | 0.86 | 0.922 | 0.98 | 0.666 | 0.467 | 0.531 | 0.535 | 0.519 | 0.583 | 0.925 | 0.981 | 0.997 | 0.982 | 0.982 | 0.718 | 0.772 | 0.74 | 0.702 | 0.751
3 | NCI-H1993 | 0.63 | 0.793 | 0.71 | 0.688 | – | 0.617 | 0.631 | 0.517 | 0.616 | 0.758 | 1.02 | 1.02 | 1.2 | 1.28 | – | 0.789 | 0.645 | 0.734 | 0.883
4 | NCI-H441 | 0.625 | 0.615 | 0.808 | 0.525 | 0.24 | 0.248 | 0.198 | 0.211 | 0.273 | 0.377 | 0.384 | 0.665 | 0.324 | 0.434 | 1.31 | 1.14 | 1.12 | 1.08 | 1.09
5 | PC-14 | 0.856 | 0.906 | 1.05 | 0.879 | 0.561 | 0.585 | 0.568 | 0.719 | 0.6 | 0.976 | 0.805 | 1.16 | 0.858 | 0.856 | 0.422 | 0.328 | 0.426 | 0.268 | 0.372
6 | HARA | 0.779 | 0.79 | 0.97 | 0.729 | 0.238 | 0.255 | 0.295 | 0.254 | 0.295 | 1.14 | 1.08 | 1.25 | 1.22 | 1.08 | 0.428 | 0.303 | 0.349 | 0.255 | 0.35
7 | NCI-H2087 | 0.812 | 0.84 | 0.932 | 0.879 | 0.21 | 0.223 | 0.275 | 0.271 | 0.256 | 0.979 | 0.909 | 0.804 | 0.798 | 0.879 | 1.36 | 1.23 | 1.12 | 1.47 | 1.18
8 | NCI-H1437 | 0.952 | 0.969 | 1.17 | 1.03 | 0.327 | 0.313 | 0.284 | 0.338 | 0.313 | 0.617 | 0.537 | 0.428 | 0.518 | 0.583 | 1.05 | 1.13 | 1.03 | 1.19 | 1.03
9 | NCI-H1792 | 0.668 | 0.681 | 0.746 | 0.656 | – | 0.632 | 0.598 | 0.649 | 0.71 | – | 0.958 | 0.916 | 0.949 | 0.935 | – | 0.704 | 0.662 | 0.701 | 0.67
10 | 201T | 1.02 | 1.03 | 1.08 | 1.02 | 0.332 | 0.356 | 0.343 | 0.37 | 0.412 | 1.09 | 1.14 | 1.13 | 1.1 | 1.11 | 0.534 | 0.511 | 0.615 | 0.667 | 0.685
11 | HCC-44 | 0.802 | 0.897 | 0.92 | 0.794 | 0.921 | 0.932 | 0.943 | 0.982 | 0.948 | 0.942 | 0.877 | 0.891 | 0.899 | 0.989 | 1.07 | 0.979 | 0.982 | 0.979 | 1.01
12 | NCI-H647 | 1.12 | 1.25 | 1.06 | 0.961 | 0.345 | 0.463 | 0.363 | 0.361 | 0.29 | 0.822 | 0.93 | 0.963 | 1.07 | 1.05 | 0.373 | 0.635 | 0.546 | 0.469 | 0.428
13 | H3255 | 0.641 | 0.697 | 0.743 | 0.688 | 0.314 | 0.315 | 0.349 | 0.328 | 0.361 | 0.695 | 0.723 | 0.75 | 1.06 | 0.92 | 0.897 | 0.906 | 0.913 | 0.847 | 0.883
14 | NCI-H650 | 0.964 | 1.08 | 1.22 | 0.99 | 0.344 | 0.381 | 0.355 | 0.337 | 0.315 | 0.696 | 0.861 | 0.804 | 0.935 | 0.812 | 0.948 | 1.07 | 0.904 | 1.09 | 0.942
15 | NCI-H23 | 0.61 | 0.818 | 0.905 | 0.666 | 0.42 | 0.531 | 0.614 | 0.594 | 0.586 | 0.813 | 1.1 | 1.11 | 1.07 | 1.41 | 0.223 | 0.257 | 0.271 | 0.221 | 0.374
16 | EKVX | 0.805 | 0.936 | 1.15 | 0.898 | 0.378 | 0.461 | 0.395 | 0.368 | 0.423 | 1.09 | 1.02 | 1 | 0.996 | 1.02 | 0.705 | 0.599 | 0.636 | 0.755 | 0.654
17 | EPLC-272H | 0.781 | 1.12 | 1.12 | 0.942 | – | 0.366 | 0.304 | 0.334 | 0.409 | 0.765 | 1.07 | 0.843 | 1.12 | 1.1 | – | 0.227 | 0.217 | 0.238 | 0.132
